Reference: US9149038B2, “4-amino-6-(heterocyclic)picolinates and 6-amino-2-(heterocyclic)pyrimidine-4-carboxylates and their use as herbicides” (Dow AgroSciences LLC, priority 2013, dated 2015)
Read-outs that look alike come from different tables or passages of the source.

Key:
[1] = system: Key Broadleaf Weed and Crop Species; assay: Post-Emergent Test II: postemergent herbicidal activity, visual rating after 14 d (Table 7); assay type: in vivo; conditions: post-emergence, 336 h; for pest or weed control at 35 g/ha: 35 g ai/ha; for pest or weed control at 70 g/ha: 70 g ai/ha; for pest or weed control at 140 g/ha: 140 g ai/ha; for pest or weed control at 280 g/ha: 280 g ai/ha
In short: (§1)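 Plants were raised in a greenhouse for 7-21 d and treated once at the first or second true leaf stage. Compounds, dissolved in 97:3 acetone:DMSO then diluted into an aqueous acetone/isopropanol/crop oil/Triton X-155 carrier, were applied by overhead track sprayer at 187 L/ha. After 14 d with subirrigation, injury was scored visually from 0 (none) to 100 (complete kill).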

[2] = system: Key Grass and Sedge Weeds as well as Grass Crops; assay: Post-Emergent Test II: postemergent herbicidal activity, visual rating after 14 d (Table 8); assay type: in vivo; conditions: post-emergence, 336 h; for pest or weed control at 35 g/ha: 35 g ai/ha; for pest or weed control at 70 g/ha: 70 g ai/ha; for pest or weed control at 140 g/ha: 140 g ai/ha; for pest or weed control at 280 g/ha: 280 g ai/ha
In short: as §1

[3] = lambsquarters (Chenopodium album), read-out: Visual Growth Reduction (%) 14 Days After Application CHEAL
[4] = oilseed rape, canola (Brassica napus), read-out: Visual Growth Reduction (%) 14 Days After Application BRSNN
[5] = redroot pigweed (Amaranthus retroflexus), read-out: Visual Growth Reduction (%) 14 Days After Application AMARE
[6] = sunflower (Helianthus annuus), read-out: Visual Growth Reduction (%) 14 Days After Application HELAN
[7] = velvetleaf (Abutilon theophrasti), read-out: Visual Growth Reduction (%) 14 Days After Application ABUTH
[8] = wild poinsettia (Euphorbia heterophylla), read-out: Visual Growth Reduction (%) 14 Days After Application EPHHL
[9] = barnyardgrass (Echinochloa crus-galli), read-out: Visual Growth Reduction (%) 14 Days After Application ECHCG
[10] = giant foxtail (Setaria faberi), read-out: Visual Growth Reduction (%) 14 Days After Application SETFA
[11] = maize, corn (Zea mays), read-out: Visual Growth Reduction (%) 14 Days After Application ZEAMX
[12] = rice (Oryza sativa), read-out: Visual Growth Reduction (%) 14 Days After Application ORYSA
[13] = wheat, spring (Triticum aestivum), read-out: Visual Growth Reduction (%) 14 Days After Application TRZAS
[14] = yellow nutsedge (Cyperus esculentus), read-out: Visual Growth Reduction (%) 14 Days After Application CYPES

Structure (SMILES): COC(=O)c1nc(-c2cccc3c2OCO3)c(F)c(N)c1Cl [Compound 71, Methyl 4-amino-6-(benzo[d][1,3]dioxol-4-yl)-3-chloro-5-fluoropicolinate]
- pest or weed control at 35 g/ha [1, 3]: 95 to 100%
- pest or weed control at 70 g/ha [1, 3]: 95 to 100%
- pest or weed control at 140 g/ha [1, 3]: 95 to 100%
- pest or weed control at 280 g/ha [1, 3]: 95 to 100%
- pest or weed control at 35 g/ha [1, 4]: 30 to 44%
- pest or weed control at 70 g/ha [1, 4]: 85 to 94%
- pest or weed control at 140 g/ha [1, 4]: 85 to 94%
- pest or weed control at 280 g/ha [1, 4]: 95 to 100%
- pest or weed control at 35 g/ha [1, 5]: 60 to 74%
- pest or weed control at 70 g/ha [1, 5]: 95 to 100%
- pest or weed control at 140 g/ha [1, 5]: 95 to 100%
- pest or weed control at 280 g/ha [1, 5]: 95 to 100%
- pest or weed control at 35 g/ha [1, 6]: 85 to 94%
- pest or weed control at 70 g/ha [1, 6]: 95 to 100%
- pest or weed control at 140 g/ha [1, 6]: 95 to 100%
- pest or weed control at 280 g/ha [1, 6]: 95 to 100%
- pest or weed control at 35 g/ha [1, 7]: 60 to 74%
- pest or weed control at 70 g/ha [1, 7]: 75 to 84%
- pest or weed control at 140 g/ha [1, 7]: 95 to 100%
- pest or weed control at 280 g/ha [1, 7]: 95 to 100%
- pest or weed control at 35 g/ha [1, 8]: 0 to 29%
- pest or weed control at 70 g/ha [1, 8]: 0 to 29%
- pest or weed control at 140 g/ha [1, 8]: 0 to 29%
- pest or weed control at 280 g/ha [1, 8]: 0 to 29%
- pest or weed control at 35 g/ha [2, 9]: 0 to 29%
- pest or weed control at 70 g/ha [2, 9]: 0 to 29%
- pest or weed control at 140 g/ha [2, 9]: 0 to 29%
- pest or weed control at 280 g/ha [2, 9]: 0 to 29%
- pest or weed control at 35 g/ha [2, 10]: 0 to 29%
- pest or weed control at 70 g/ha [2, 10]: 0 to 29%
- pest or weed control at 140 g/ha [2, 10]: 0 to 29%
- pest or weed control at 280 g/ha [2, 10]: 0 to 29%
- pest or weed control at 35 g/ha [2, 11]: 0 to 29%
- pest or weed control at 70 g/ha [2, 11]: 0 to 29%
- pest or weed control at 140 g/ha [2, 11]: 0 to 29%
- pest or weed control at 280 g/ha [2, 11]: 0 to 29%
- pest or weed control at 35 g/ha [2, 12]: 0 to 29%
- pest or weed control at 70 g/ha [2, 12]: 0 to 29%
- pest or weed control at 140 g/ha [2, 12]: 0 to 29%
- pest or weed control at 280 g/ha [2, 12]: 0 to 29%
- pest or weed control at 35 g/ha [2, 13]: 0 to 29%
- pest or weed control at 70 g/ha [2, 13]: 0 to 29%
- pest or weed control at 140 g/ha [2, 13]: 0 to 29%
- pest or weed control at 280 g/ha [2, 13]: 0 to 29%
- pest or weed control at 35 g/ha [2, 14]: 0 to 29%
- pest or weed control at 70 g/ha [2, 14]: 0 to 29%
- pest or weed control at 140 g/ha [2, 14]: 30 to 44%
- pest or weed control at 280 g/ha [2, 14]: 45 to 59%

Structure (SMILES): Nc1c(F)c(-c2cccc3c2OCO3)nc(C(=O)O)c1Cl [Compound 72, 4-Amino-6-(benzo[d][1,3]dioxol-4-yl)-3-chloro-5-fluoropicolinic acid]
- pest or weed control at 35 g/ha [1, 3]: 95 to 100%
- pest or weed control at 70 g/ha [1, 3]: 95 to 100%
- pest or weed control at 140 g/ha [1, 3]: 95 to 100%
- pest or weed control at 280 g/ha [1, 3]: 95 to 100%
- pest or weed control at 35 g/ha [1, 4]: 75 to 84%
- pest or weed control at 70 g/ha [1, 4]: 95 to 100%
- pest or weed control at 140 g/ha [1, 4]: 95 to 100%
- pest or weed control at 280 g/ha [1, 4]: 95 to 100%
- pest or weed control at 35 g/ha [1, 5]: 95 to 100%
- pest or weed control at 70 g/ha [1, 5]: 95 to 100%
- pest or weed control at 140 g/ha [1, 5]: 95 to 100%
- pest or weed control at 280 g/ha [1, 5]: 95 to 100%
- pest or weed control at 35 g/ha [1, 6]: 95 to 100%
- pest or weed control at 70 g/ha [1, 6]: 95 to 100%
- pest or weed control at 140 g/ha [1, 6]: 95 to 100%
- pest or weed control at 280 g/ha [1, 6]: 95 to 100%
- pest or weed control at 35 g/ha [1, 7]: 75 to 84%
- pest or weed control at 70 g/ha [1, 7]: 95 to 100%
- pest or weed control at 140 g/ha [1, 7]: 95 to 100%
- pest or weed control at 280 g/ha [1, 7]: 95 to 100%
- pest or weed control at 35 g/ha [1, 8]: 0 to 29%
- pest or weed control at 70 g/ha [1, 8]: 0 to 29%
- pest or weed control at 140 g/ha [1, 8]: 0 to 29%
- pest or weed control at 280 g/ha [1, 8]: 0 to 29%
- pest or weed control at 35 g/ha [2, 9]: 0 to 29%
- pest or weed control at 70 g/ha [2, 9]: 0 to 29%
- pest or weed control at 140 g/ha [2, 9]: 0 to 29%
- pest or weed control at 280 g/ha [2, 9]: 0 to 29%
- pest or weed control at 35 g/ha [2, 10]: 0 to 29%
- pest or weed control at 70 g/ha [2, 10]: 0 to 29%
- pest or weed control at 140 g/ha [2, 10]: 0 to 29%
- pest or weed control at 280 g/ha [2, 10]: 0 to 29%
- pest or weed control at 35 g/ha [2, 11]: 0 to 29%
- pest or weed control at 70 g/ha [2, 11]: 0 to 29%
- pest or weed control at 140 g/ha [2, 11]: 0 to 29%
- pest or weed control at 280 g/ha [2, 11]: 0 to 29%
- pest or weed control at 35 g/ha [2, 12]: 0 to 29%
- pest or weed control at 70 g/ha [2, 12]: 0 to 29%
- pest or weed control at 140 g/ha [2, 12]: 0 to 29%
- pest or weed control at 280 g/ha [2, 12]: 0 to 29%
- pest or weed control at 35 g/ha [2, 13]: 0 to 29%
- pest or weed control at 70 g/ha [2, 13]: 0 to 29%
- pest or weed control at 140 g/ha [2, 13]: 0 to 29%
- pest or weed control at 280 g/ha [2, 13]: 0 to 29%
- pest or weed control at 35 g/ha [2, 14]: 0 to 29%
- pest or weed control at 70 g/ha [2, 14]: 0 to 29%
- pest or weed control at 140 g/ha [2, 14]: 0 to 29%
- pest or weed control at 280 g/ha [2, 14]: 0 to 29%
